Reference: patent US20080176787A1, “Parathyroid hormone analogues and methods of use” (priority 2005, published 2008)
“And” between values parts separate entries of the source, which are not always exact repeats. Identical values can stand only once. Like-named read-outs stand apart in the source and are kept apart here. Positions of bridges follow the written chain, without caps; N, C: chain ends. Residues, ends and D or L forms follow the SMILES beside them.

Assay: Phase II pharmacokinetic evaluation of subcutaneous Ostabolin-C (Baseline and Week 12 subset)
Type: in vivo, human
Design: AUC(0-24): unit: pg·h/mL
Procedure: The objective of this portion of the study was to evaluate the pharmacokinetics of Ostabolin-C under steady state conditions when given subcutaneously (sc) once a day to post-menopausal female subjects with low bone mineral density.
After Screening procedures and a 2-week placebo run-in phase, subjects were to be dosed once a day for 16 weeks with either Placebo or Ostabolin-C (7.5, 15, 30 or 45 μg). A subset of subjects from all treatment groups had blood collected for measurements of Ostabolin-C in order to determine PK parameters and compare them to prior studies.
The full study duration of the study was 22 weeks, which included a 6-week screening period involving a 2-week placebo run-in and then 16 weeks of treatment. The subset of subjects for this component of the study was treated the same as all other subjects with the exception of the additional blood collections at baseline and Week 12.
All of the values from the Placebo subject except one (Baseline 2 hour time-point) were below the assay level of detection (i.e., 10 pg/ml). With very limited exceptions, all values from Placebo subjects in prior trials have also been below the levels of detection. Thus, this one value was considered to be a laboratory error and PK parameters for this placebo subject were not calculated.
No samples were obtained for Pre-dose at either Baseline or Week 12. In all prior studies, pre-treatment values have been below the levels of detection and 24-hour time points at doses of 40 ug and below have been below the levels of detection. Thus, no observable values were anticipated and for calculating PK the pre-treatment values for Baseline visit were set to zero.
For pre-dose at Week 12, it was also anticipated that the values would be below the levels of detection based on prior studies and that the 24-hour post dose value would verify this. Only two 24-hour time-point values were above the level of detection; i.e. 24 hours post dosing at Baseline for Subject 030-003 and 24 hours post dosing at Week 12 for Subject 030-0004. The values of both of these 24-hour time-points were marginally above the assay level of detection. Also, both of these subjects had values below the levels of detection for both the 4 hour and 6 hour time-points after dosing on the prior day. Thus, these values are most likely artifacts and not real values. No valid 24 hour sample for subject 032-0001 at Week 12 was obtained. […] Thus, for calculating PK parameters, the Pre-dose values for Week 12 were also set to zero.
The pharmacokinetic parameters that were estimated at Baseline and Week 12 are as follows:
AUC values were estimated by a simple summation of trapezoidal areas from each time period. Data from each dose group were summarized using simple statistics on an Excel® spreadsheet; i.e., average (AVG) and Standard Deviation (STD). It should be noted that particularly with the lower doses and associated low blood levels and at late time points, those values just above versus just below the assay limits of detection can have a disproportionate impact to AUC calculations. This adds to that variability of the calculated numbers.

[1] = Baseline, 7.5 ug, individual subjects, in pg·h/mL
[2] = Baseline, 15 ug, individual subjects, in pg·h/mL
[3] = Baseline, 45 ug, individual subjects, in pg·h/mL
[4] = Week 12, 7.5 ug, individual subjects, in pg·h/mL
[5] = Week 12, 30 ug, individual subjects, in pg·h/mL

## CC[C@H](C)[C@H](NC(=O)[C@H](CCC(=O)O)NC(=O)[C@H](CO)NC(=O)[C@@H](NC(=O)[C@@H](N)CO)C(C)C)C(=O)N[C@@H](CCC(N)=O)C(=O)N[C@@H](CC(C)C)C(=O)N[C@@H](CCSC)C(=O)N[C@@H](Cc1c[nH]cn1)C(=O)N[C@@H](CC(N)=O)C(=O)N[C@@H](CC(C)C)C(=O)NCC(=O)N[C@@H](CCCCN)C(=O)N[C@@H](Cc1c[nH]cn1)C(=O)N[C@@H](CC(C)C)C(=O)N[C@@H](CC(N)=O)C(=O)N[C@@H](CO)C(=O)N[C@@H](CCSC)C(=O)N[C@@H](CCC(=O)O)C(=O)N[C@@H](CCCN=C(N)N)C(=O)N[C@H](C(=O)N[C@H]1CCC(=O)NCCCC[C@@H](C(=O)N[C@@H](CC(C)C)C(=O)N[C@@H](CC(C)C)C(=O)N[C@@H](CCC(N)=O)C(=O)N[C@@H](CC(=O)O)C(=O)N[C@H](C(N)=O)C(C)C)NC(=O)[C@H](CCCN=C(N)N)NC(=O)[C@H](CC(C)C)NC(=O)[C@H](Cc2c[nH]c3ccccc23)NC1=O)C(C)C [Ostabolin-C, [Leu^27]cyclo[Glu^22-Lys^26]-PTH-(1-31)-NH2] (H-SVSEIQLMHNLGKHLNSMERVEWLRKLLQDV-NH2; lactam 22-26)
Baseline, 7.5 ug, individual subjects
  Tmax: 1.00
Baseline, 7.5 ug, individual subjects, in pg/mL
  Cmax: 27.75 and 33.15
[1]
  AUC(0-4): 11.71 and 16.25 and 88.35
  AUC(0-24): 11.71 and 16.25 and 99.67
Baseline, 15 ug, individual subjects, in pg/mL
  Cmax: 57.54 and 46.59
[2]
  AUC(0-4): 82.31 and 74.38
  AUC(0-24): 82.31 and 74.38
Baseline, 45 ug, individual subjects, in pg/mL
  Cmax: 114.54 and 233.33
[3]
  AUC(0-4): 344.39
  AUC(0-24): 370.47
Week 12, 7.5 ug, individual subjects, in pg/mL
  Cmax: 37.84 and 40.38
[4]
  AUC(0-4): 28.83 and 64.83
  AUC(0-24): 28.83 and 64.83
Week 12, 15 ug, individual subjects
  AUC(0-24): 164.36 and 54.29* and 110.80
Week 12, 15 ug, individual subjects, in pg/mL
  Cmax: 41.98 and 33.33 and 69.33
Week 12, 15 ug, individual subjects, in pg·h/mL
  AUC(0-4): 68.69 and 54.29 and 110.80
Week 12, 30 ug, individual subjects, in pg/mL
  Cmax: 46.75
[5]
  AUC(0-4): 142.45 and 70.73
  AUC(0-24): 214.03
After 12 weeks of dosing
  accumulation: no evidence of accumulation
female, human, blood, sc, 7.5 ug, Baseline, 7.5 ug, AVG, read-out: Tmax
  Tmax: 30 min
female, human, blood, sc, 7.5 ug, Dose 7.5, mean of Baseline and Week 12 data, read-out: AUC(0-4)
  AUC(0-t): 0.0365 ng·h/mL
female, human, blood, sc, 7.5 ug, Dose 7.5, mean of Baseline and Week 12 data, read-out: AUC(0-24)
  AUC(0-t): 0.0384 ng·h/mL
female, human, blood, sc, 7.5 ug, Dose 7.5, mean of Baseline and Week 12 data, read-out: Cmax
  Cmax: 0.0301 ng/mL
female, human, blood, sc, 7.5 ug, Dose 7.5, mean of Baseline and Week 12 data, read-out: Tmax
  Tmax: 22.8 min
female, human, blood, sc, 7.5 ug, Week 12, 7.5 ug, AVG, read-out: AUC(0-4)
  AUC(0-t): 0.0343 ng·h/mL
female, human, blood, sc, 7.5 ug, Week 12, 7.5 ug, AVG, read-out: AUC(0-24)
  AUC(0-t): 0.0343 ng·h/mL
female, human, blood, sc, 7.5 ug, Week 12, 7.5 ug, AVG, read-out: Cmax
  Cmax: 0.0331 ng/mL
female, human, blood, sc, 7.5 ug, Week 12, 7.5 ug, AVG, read-out: Tmax
  Tmax: 15 min
female, human, blood, sc, 15 ug, Baseline, 15 ug, AVG, read-out: Tmax
  Tmax: 19.8 min
female, human, blood, sc, 15 ug, Dose 15, mean of Baseline and Week 12 data, read-out: AUC(0-4)
  AUC(0-t): 0.0761 ng·h/mL
female, human, blood, sc, 15 ug, Dose 15, mean of Baseline and Week 12 data, read-out: AUC(0-24)
  AUC(0-t): 0.092 ng·h/mL
female, human, blood, sc, 15 ug, Dose 15, mean of Baseline and Week 12 data, read-out: Cmax
  Cmax: 0.0466 ng/mL
female, human, blood, sc, 15 ug, Week 12, 15 ug, AVG, read-out: AUC(0-4)
  AUC(0-t): 0.0779 ng·h/mL
female, human, blood, sc, 15 ug, Week 12, 15 ug, AVG, read-out: AUC(0-24)
  AUC(0-t): 0.11 ng·h/mL
female, human, blood, sc, 15 ug, Week 12, 15 ug, AVG, read-out: Cmax
  Cmax: 0.0482 ng/mL
female, human, blood, sc, 30 ug, Dose 30, mean of Baseline and Week 12 data, read-out: AUC(0-4)
  AUC(0-t): 0.123 ng·h/mL
female, human, blood, sc, 30 ug, Dose 30, mean of Baseline and Week 12 data, read-out: AUC(0-24)
  AUC(0-t): 0.129 ng·h/mL
female, human, blood, sc, 30 ug, Dose 30, mean of Baseline and Week 12 data, read-out: Cmax
  Cmax: 0.0701 ng/mL
female, human, blood, sc, 30 ug, Dose 30, mean of Baseline and Week 12 data, read-out: Tmax
  Tmax: 22.8 min
female, human, blood, sc, 45 ug, Baseline, 45 ug, AVG, read-out: Tmax
  Tmax: 30 min
